# Experimental data published in PubChem BioAssay AID1918996 (Molecular Pharmacology Branch, DTP, NCI, 2023).
# System: 349418-098-R-PDC complex spheroid growth
# Assay: Anticancer human tumor 349418-098-R-PDC patient-derived lung adenocarcinoma cell line growth inhibition [AhR]
# Conditions: for IC50: curve of first compound; for viability, T/C: stronger effect = lower value
# Text: Multicellular complex tumor spheroid response to aryl hydrocarbon receptor antagonists in combination with a variety of drugs and investigational agents in selected tumor cell lines
# The current study was undertaken to assess response to aryl hydrocarbon receptor antagonists in combination with standard-of-care drugs and investigational agents in solid tumor complex spheroid models. Complex spheroids include a stromal component modeled by human endothelial cells (HUVEC) and fibroblasts modeled by human mesenchymal stem cells (MSCs). The concentration ranges selected for each drug and investigational agent were based upon clinically achievable concentrations if the clinical Cmax of the agent was known.
# Compounds. The drugs and investigational agents: BAY 2416964 (NSC825713), GNF351 (NSC835774), CH-223191 (NSC835775), CPI-455 (NSC825282), aza-TdCyd (NSC777586), decitabine (NSC127716), belinostat (NSC758774), entinostat (NSC756642), pevonedistat (NSC761192), tazemetostat (NSC777109), talazoparib (NSC765396), olaparib (NSC753686), selinexor (NSC780203), nedisertib (M3814, NSC802822), bortezomib (NSC756655), venetoclax (NSC766270), doxorubicin (NSC123127), elimusertib (BAY189344, NSC800525), ceralasertib (AZD6738, NSC777638), TAK-243 (NSC785004), alisertib (NSC759677), etoposide (NSC141540), topotecan (NSC609699), eribulin (NSC707389), gemcitabine (NSC613327), carboplatin (NSC241240), cisplatin (NSC119875), and SN-38 (NSC673596) were obtained from the National Cancer Institute (NCI) Developmental Therapeutics Program Chemical Repository (32). The FDA-approved anticancer drug set is available from the Developmental Therapeutics Program at https://dtp.cancer.gov/organization/dscb/obtaining/available plates.htm. […] The stock solutions were prepared in dimethyl sulfoxide (DMSO, Sigma-Aldrich, St. Louis, MO, cat. D2650), except for the platinum compounds which were prepared in saline (Quality Biological, Gaithersburg, MD, cat. 114-055-101), at 800-fold the tested concentration and stored at -70 degrees C prior to their use. All drugs and investigational agents were tested over a range starting from a high concentration at or near the clinical Cmax and decreasing in half-log increments. If the clinical Cmax for an agent had not been determined, the highest concentration tested was 10 microM (Table 1).
# Cell Culture. All cells were maintained in an incubator at 37 degrees C and 5% CO2 with 95% humidity. The PDC lines were cultured according to standard operating procedures established by the NCI PDMR (https://pdmr.cancer.gov). Briefly, all PDCs were thawed and cultured in Matrigel-coated flasks prepared with a working solution of 1X Ham's F-12 nutrient mix, without supplementation (Invitrogen, Waltham, MA, cat. 11765054), 100 U/mL penicillin-streptomycin (Invitrogen, cat. 15140122), and 2.5% Matrigel (Corning Inc., Corning, NY, cat. 354248) for the first three passages. All PDCs were cultured in complete DMEM/F-12 media containing advanced DMEM/F-12 (Invitrogen, cat. 12634028), 4.9% defined fetal bovine serum, heat inactivated (HyClone Laboratories Inc., Logan, UT, cat. SH30070.03HI), 389 ng/mL hydrocortisone (Sigma-Aldrich, cat. H4001), 9.7 ng/mL human EGF recombinant protein (Invitrogen, cat. PHG0313), 23.4 microg/mL adenine (Sigma-Aldrich, cat. A2786), 97.3 U/mL penicillin-streptomycin (Invitrogen, cat. 15140122), 1.9 mM L-glutamine (Invitrogen, cat. 25030081), and 9.7 microM Y-27632 dihydrochloride (Tocris Bioscience, Bristol, United Kingdom, cat. 1254). The PDCs were cultured in complete DMEM/F12 media without 10 microM Y-27632 dihydrochloride for at least two passages prior to the screen. The established cell lines NCI-H1341 and […] were cultured in DMEM/F-12, HEPES (Invitrogen, cat. 11330032), 5% defined fetal bovine serum (HyClone Laboratories Inc., cat. SH30070.03), ITS premix universal culture supplement [insulin (5 microg/mL), transferrin (5 microg/mL), and selenious acid (5 ng/mL)] […]
# [1] = second compound 0.1 µM, first compound 0.0316 µM
# [2] = second compound 0.1 µM, first compound 0.1 µM
# [3] = second compound 0.316 µM, first compound 0.0316 µM
# [4] = second compound 0.316 µM, first compound 0.1 µM
# [5] = second compound 1 µM, first compound 0.0316 µM
# [6] = second compound 1 µM, first compound 0.1 µM
# [7] = second compound 3.16 µM, first compound 0.0316 µM
# [8] = second compound 3.16 µM, first compound 0.1 µM
# [9] = second compound 10 µM, first compound 0.0316 µM
# [10] = second compound 10 µM, first compound 0.1 µM
# [11] = second compound 0.1 µM, first compound 0.316 µM
# [12] = second compound 0.1 µM, first compound 1 µM
# [13] = second compound 0.1 µM, first compound 3.16 µM
# [14] = second compound 0.1 µM, first compound 10 µM
# [15] = second compound 0.316 µM, first compound 0.316 µM
# [16] = second compound 0.316 µM, first compound 1 µM
# [17] = second compound 0.316 µM, first compound 3.16 µM
# [18] = second compound 0.316 µM, first compound 10 µM
# [19] = second compound 1 µM, first compound 0.316 µM
# [20] = second compound 1 µM, first compound 1 µM
# [21] = second compound 1 µM, first compound 3.16 µM
# [22] = second compound 1 µM, first compound 10 µM
# [23] = second compound 3.16 µM, first compound 0.316 µM
# [24] = second compound 3.16 µM, first compound 1 µM
# [25] = second compound 3.16 µM, first compound 3.16 µM
# [26] = second compound 3.16 µM, first compound 10 µM
# [27] = second compound 10 µM, first compound 0.316 µM
# [28] = second compound 10 µM, first compound 1 µM
# [29] = second compound 10 µM, first compound 3.16 µM
# [30] = second compound 10 µM, first compound 10 µM
# 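Also: spheroids exposed to agents for seven days before luminescence viability read.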
# 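For viability, T/C in this document: spheroids also contain HUVEC endothelial cells and human MSC stroma.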
Compound,IC50 (second compound 0.1 µM),IC50 (second compound 0.316 µM),IC50 (second compound 1 µM),IC50 (second compound 3.16 µM),IC50 (second compound 10 µM),"viability, T/C [1]","viability, T/C [2]","viability, T/C [3]","viability, T/C [4]","viability, T/C [5]","viability, T/C [6]","viability, T/C [7]","viability, T/C [8]","viability, T/C [9]","viability, T/C [10]","viability, T/C [11]","viability, T/C [12]","viability, T/C [13]","viability, T/C [14]","viability, T/C [15]",also measured
CC[C@@]1(O)C(=O)OCc2c1cc1n(c2=O)Cc2cc3c(CN(C)C)c(O)ccc3nc2-1 + CC(CO)NC(=O)c1cc(-c2ccc(Cl)cc2)nn(-c2cnn(C)c2)c1=O,24.6 nM,16.9 nM,10.6 nM,12.2 nM,3.67 nM,43.9%,16.2%,37.7%,12.8%,29.3%,12.8%,21.9%,12.4%,23.1%,13.6%,,,,,,"viability, T/C (second compound 0.1 µM, first compound 0.000316 µM): 90%; viability, T/C (second compound 0.1 µM, first compound 0.001 µM): 115%; viability, T/C (second compound 0.1 µM, first compound 0.00316 µM): 97.5%; viability, T/C (second compound 0.1 µM, first compound 0.01 µM): 75.7%; viability, T/C (second compound 0.316 µM, first compound 0.000316 µM): 136%; viability, T/C (second compound 0.316 µM, first compound 0.001 µM): 118%; viability, T/C (second compound 0.316 µM, first compound 0.00316 µM): 87.8%; viability, T/C (second compound 0.316 µM, first compound 0.01 µM): 60.9%; viability, T/C (second compound 1 µM, first compound 0.000316 µM): 118%; viability, T/C (second compound 1 µM, first compound 0.001 µM): 136%; viability, T/C (second compound 1 µM, first compound 0.00316 µM): 72.4%; viability, T/C (second compound 1 µM, first compound 0.01 µM): 57.8%; viability, T/C (second compound 3.16 µM, first compound 0.000316 µM): 92.9%; viability, T/C (second compound 3.16 µM, first compound 0.001 µM): 93.2%; viability, T/C (second compound 3.16 µM, first compound 0.00316 µM): 83.4%; viability, T/C (second compound 3.16 µM, first compound 0.01 µM): 56.3%; viability, T/C (second compound 10 µM, first compound 0.000316 µM): 51.1%; viability, T/C (second compound 10 µM, first compound 0.001 µM): 65%; viability, T/C (second compound 10 µM, first compound 0.00316 µM): 51.3%; viability, T/C (second compound 10 µM, first compound 0.01 µM): 35%"
COc1cc(C2c3cc4c(cc3C(OC3OC5COC(C)OC5C(O)C3O)C3COC(=O)C23)OCO4)cc(OC)c1O (stereo not given) + CC(CO)NC(=O)c1cc(-c2ccc(Cl)cc2)nn(-c2cnn(C)c2)c1=O,727 nM,607 nM,503 nM,269 nM,136 nM,103%,98%,108%,109%,102%,90.2%,78.8%,104%,59%,56.4%,91.1%,34.1%,18%,12.9%,72.4%,"viability, T/C [16]: 32.6%; viability, T/C [17]: 16.2%; viability, T/C [18]: 11.3%; viability, T/C [19]: 64.5%; viability, T/C [20]: 29%; viability, T/C [21]: 18.7%; viability, T/C [22]: 14.6%; viability, T/C [23]: 43.2%; viability, T/C [24]: 25.1%; viability, T/C [25]: 16.6%; viability, T/C [26]: 13.5%; viability, T/C [27]: 36%; viability, T/C [28]: 22.3%; viability, T/C [29]: 14.4%; viability, T/C [30]: 14.1%"
Nc1ccn(C2OC(CO)C(O)C2(F)F)c(=O)n1 (stereo not given) + CC(CO)NC(=O)c1cc(-c2ccc(Cl)cc2)nn(-c2cnn(C)c2)c1=O,< 31.6 nM,< 31.6 nM,< 31.6 nM,< 31.6 nM,< 31.6 nM,11.7%,13.3%,11.5%,12.5%,12.7%,13.5%,12.1%,13.4%,12.3%,11%,12.8%,10.8%,9.89%,7.31%,13.3%,"viability, T/C [16]: 10.6%; viability, T/C [17]: 9.24%; viability, T/C [18]: 6.37%; viability, T/C [19]: 13.3%; viability, T/C [20]: 11.2%; viability, T/C [21]: 8.78%; viability, T/C [22]: 5.77%; viability, T/C [23]: 12.8%; viability, T/C [24]: 9.14%; viability, T/C [25]: 7.92%; viability, T/C [26]: 7.72%; viability, T/C [27]: 11.6%; viability, T/C [28]: 8.92%; viability, T/C [29]: 7.77%; viability, T/C [30]: 8.23%"
